Results as given in patent US12630512B2, “Agents for differentiating stem cells and treating cancer” (Minerva Biotechnologies Corporation, priority 2017, dated 2026).
pIC50: −log10 of the molar value.

What was measured:
T47D breast cancer cells = test: Cancer cell migration assay (wound healing / Platypus); type: cell-based, human; conditions: cell line not given, FIGS. 65-80 use T47D, 120 hours; for pIC50: Homo sapiens, read-out: IC50 of inhibition of cancer cell migration
Source text: Potent cancer cell migration is characteristic of cancer cell invasion of other tissues and of metastasis. Typical migration assays involve coating a cell culture plate with fibronectin, collagen or the like, plating cancer cells and making a scar across through the cells and measuring the time it takes for the cancer cells to invade the void space. An alternative approach that gives more reliable data is the Platypus System which is a special multi-well cell culture plate with a juxtaposed set of plugs that block off a circle in the center of each well. Cancer cells are plated while the plugs are in place, then they are removed after the cells attach to the plate surface. […] In our cancer cell migration assays, the number of cells that have migrated into the empty space is quantified using Image J software. The effects of known anti-migration compounds are compared to the anti-MUC1* Fab E6 and the first few small molecule leads. The effect of two novel small molecules MN1186 and MN1194, compared to the known anti-migration molecule SU11274, is shown in FIG. 22A-22U. FIG. 22V is a graph showing the measured inhibition of cancer cell migration at time 0, 24 hours or 48 hours for a number of compounds. […] FIG. 22X is a graph showing how IC50's of the small molecules of the invention were measured and calculated.
Percent inhibition of cancer cell migration was performed in a wound healing assay. The percent area that the invading cancer cells occupied, in the presence of a drug candidate compared to the controls, was quantified by Image J cell software which enables cell counting from photographs. IC50's were calculated by performing migration experiments at several compound concentrations and then applying Hill's equation. Inhibition of cancer cell proliferation was quantified by automated cell counting in the presence or absence of a drug candidate. Here, the inhibition of cancer cell proliferation was scored 1 if proliferation was inhibited by 25%, 2 if inhibited by […] and 4 for the highest degree of inhibition of proliferation, and 0 for the lowest. The effect of the drug candidates on stem cell pluripotency or proliferation was scored by eye, based on cell morphology and cell density, with 0 being no change in morphology or cell number and 4 being the most profound effect, with the stem cells taking on the morphology of a differentiating cell, along with much fewer cells indicative of inhibition of proliferation. As an example, FIGS. 30A-30F show photographs of naïve stem cell, primed stem cell and fibroblast controls. FIGS. 31A-31F show the effect of compounds of the invention on naïve state stem cells, where the number of ‘+’ signs indicates the score from 0-4 of ability of compound to inhibit pluripotency, proliferation of naïve stem cells or ability to induce their differentiation. […] FIGS. 36-44 and 65-87 show photographs and IC50 graphs of the compounds of the invention, inhibiting cancer cell migration and invasion. Cancer cell migration is a hallmark of metastatic cancer.
For the cancer cell migration experiment cancer cells were plated at varying densities into an Oris Cell Migration Assay Collagen-1 coated 96-well plate (Platypus Technologies LLC, Madison, WI). The Collagen-1 coated 96-well plate incorporates a specific vacuum plug which attaches to the bottom of each well, creating an area in which the cells cannot grow into. Once the cells have been plated at high densities into each well, they are allotted an 18-24 hour time period to attach to the bottom of the wells. Post-24 hour plugs are removed from the plate and then small molecule analogs are added to the wells. Images are taken of each well and represent time 0 (T=0) for each well. Images are taken of the wells at the 24, 48, 72, 96 and 120 hour time points. Data analysis is conducted using the images taken at these specific time point. […]

cancer cells = test: Cancer cell proliferation assay; type: cell-based
Description: Percent inhibition of cancer cell migration was performed in a wound healing assay. The percent area that the invading cancer cells occupied, in the presence of a drug candidate compared to the controls, was quantified by Image J cell software which enables cell counting from photographs. IC50's were calculated by performing migration experiments at several compound concentrations and then applying Hill's equation. Inhibition of cancer cell proliferation was quantified by automated cell counting in the presence or absence of a drug candidate. […] The effect of the drug candidates on stem cell pluripotency or proliferation was scored by eye, based on cell morphology and cell density, with 0 being no change in morphology or cell number and 4 being the most profound effect, with the stem cells taking on the morphology of a differentiating cell, along with much fewer cells indicative of inhibition of proliferation. […]
For the cancer cell proliferation experiment cancer cells were plated at constant densities (6000 cells/well) into a 96-well White-walled/Clear-bottom Tissue Culture Treated plate (Corning Incorporated, Big Flats, NY). […] At the 120 hour mark a calcein fluorescence assay (Thermo Fisher Scientific, Waltham, MA) is performed on the plate. Calcein fluorescence (final concentration 0.5 uM) is used to assess cell viability. […]

pIC50 (T47D breast cancer cells) | Compound | inhibited cancer cell migration (T47D breast cancer cells) [%] | inhibited cancer cell proliferation (cancer cells)
7.92 | C[C@@H]1Cc2c([nH]c3ccccc23)CN1C(=O)C1CCC(CN(C)C(=O)NC(C)(C)C)CC1 (some centres unmarked) [MN1423] | 84 | 50%
8.00 | CN(C[C@H]1CC[C@H](C(=O)N2CCc3c([nH]c4ccccc34)C2C2CC2)CC1)C(=O)NC(C)(C)C (some centres unmarked) [MN1413] | 83 | about 50%
8.15 | CN(CC1CCC(C(=O)N2CCC(c3ccncc3)CC2)CC1)C(=O)OC(C)(C)C (centres unmarked) [MN1428, Tert-butyl methyl((4-(4-(pyridin-4-yl)piperidine-1-carbonyl)cyclohexyl)methyl)carbamate] | 79 | –
